Test results: paper PMC5072725, “A Novel Diphenylthiosemicarbazide Is a Potential Insulin Secretagogue for Anti-Diabetic Agent” (PLoS ONE, 2016)

Target: T1, β-cell KATP channel (human SUR1 and human Kir6.2) (Homo sapiens, UniProt Q09428)
T1 construct: gene ABCC8; SUR1 and Kir6.2 co-expressed in COS-1 cells; with ATP-sensitive inward rectifier potassium channel 11
Assay: whole-cell patch clamp, inhibition of diazoxide-induced K+ current
Type: cell-based

T1 sequence (Q09428 whole entry): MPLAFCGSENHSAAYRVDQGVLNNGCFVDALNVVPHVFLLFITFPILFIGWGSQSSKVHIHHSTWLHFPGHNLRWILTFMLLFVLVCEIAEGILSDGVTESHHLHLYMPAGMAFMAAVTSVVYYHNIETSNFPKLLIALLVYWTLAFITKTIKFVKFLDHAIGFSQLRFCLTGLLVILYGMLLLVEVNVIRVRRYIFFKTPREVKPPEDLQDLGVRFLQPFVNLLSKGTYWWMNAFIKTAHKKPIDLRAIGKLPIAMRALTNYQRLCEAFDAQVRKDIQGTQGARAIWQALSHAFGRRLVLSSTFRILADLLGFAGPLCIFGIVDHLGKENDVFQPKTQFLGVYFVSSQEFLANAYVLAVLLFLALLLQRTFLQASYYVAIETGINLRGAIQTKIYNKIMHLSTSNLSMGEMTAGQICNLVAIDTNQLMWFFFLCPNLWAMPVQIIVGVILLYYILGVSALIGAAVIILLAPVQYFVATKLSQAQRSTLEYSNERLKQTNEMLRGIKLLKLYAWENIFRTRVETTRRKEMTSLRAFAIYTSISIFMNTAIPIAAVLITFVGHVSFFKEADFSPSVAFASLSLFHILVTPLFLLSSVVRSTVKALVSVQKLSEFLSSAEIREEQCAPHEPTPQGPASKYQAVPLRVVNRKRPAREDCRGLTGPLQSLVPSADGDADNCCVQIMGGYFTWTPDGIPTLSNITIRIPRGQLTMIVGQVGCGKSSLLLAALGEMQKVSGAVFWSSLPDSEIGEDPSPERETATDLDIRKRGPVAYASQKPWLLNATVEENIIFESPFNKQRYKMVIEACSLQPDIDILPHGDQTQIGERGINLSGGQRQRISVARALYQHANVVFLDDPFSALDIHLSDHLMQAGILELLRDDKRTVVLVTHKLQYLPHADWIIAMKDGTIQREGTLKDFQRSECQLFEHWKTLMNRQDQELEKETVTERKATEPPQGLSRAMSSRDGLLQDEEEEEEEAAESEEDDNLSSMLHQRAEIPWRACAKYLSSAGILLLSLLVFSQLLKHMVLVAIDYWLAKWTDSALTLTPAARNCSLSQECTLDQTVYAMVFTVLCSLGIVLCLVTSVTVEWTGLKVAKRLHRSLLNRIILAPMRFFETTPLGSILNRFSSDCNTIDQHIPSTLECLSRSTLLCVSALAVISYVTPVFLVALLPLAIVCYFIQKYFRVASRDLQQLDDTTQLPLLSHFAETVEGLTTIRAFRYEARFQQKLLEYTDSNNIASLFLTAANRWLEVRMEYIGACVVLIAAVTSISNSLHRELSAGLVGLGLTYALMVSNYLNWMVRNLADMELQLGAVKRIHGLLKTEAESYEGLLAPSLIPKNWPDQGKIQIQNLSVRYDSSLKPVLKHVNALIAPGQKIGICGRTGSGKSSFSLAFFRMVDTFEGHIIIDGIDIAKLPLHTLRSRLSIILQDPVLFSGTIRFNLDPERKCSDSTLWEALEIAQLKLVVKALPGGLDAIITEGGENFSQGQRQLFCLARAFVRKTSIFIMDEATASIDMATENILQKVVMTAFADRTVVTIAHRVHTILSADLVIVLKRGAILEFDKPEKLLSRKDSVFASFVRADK
T1 sequence (Q14654 whole entry partner): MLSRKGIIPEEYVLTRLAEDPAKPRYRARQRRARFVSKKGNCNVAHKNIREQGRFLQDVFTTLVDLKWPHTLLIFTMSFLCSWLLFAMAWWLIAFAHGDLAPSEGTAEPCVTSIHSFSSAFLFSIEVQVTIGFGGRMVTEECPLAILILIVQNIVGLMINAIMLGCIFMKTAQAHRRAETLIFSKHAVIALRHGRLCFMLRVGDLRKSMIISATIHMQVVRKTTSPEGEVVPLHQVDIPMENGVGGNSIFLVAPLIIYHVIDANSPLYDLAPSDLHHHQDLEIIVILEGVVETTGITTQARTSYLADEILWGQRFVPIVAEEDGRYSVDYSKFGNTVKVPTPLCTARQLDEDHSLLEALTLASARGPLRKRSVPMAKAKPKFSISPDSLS

## Cc1ccc(S(=O)(=O)NC(=O)NN2CC3CCCC3C2)cc1 (stereo not shown) [gliclazide]
  IC50: 860 nM
